Results from PMC9574867, “Discovery and Characterization of Synthesized and FDA-Approved Inhibitors of Clostridial and Bacillary Collagenases” (Journal of Medicinal Chemistry, 2022).
In brackets after ≈: the same amount, converted by molar mass. Entries after “also recorded” stand apart in the source; their conditions may differ.

Legend:
[1] = biological target: ColQ1-CU (Bacillus cereus, UniProt B9J3S4); experiment: biochemical; parameters: species or system B. cereus strain Q1
[2] = test system: B. cereus AH187; experiment: B. cereus growth inhibition assay; type: cell-based; details: Bacillus cereus, AH187; BHI medium, 37 °C, 48 h, 200–3 μM; read-out: MIC50 (µM) AH187
[3] = test system: B. cereus collagenases released in the NHDF infection model; type: cell-based, B. cereus AH187
[4] = biological target: ColQ1-FL (Bacillus cereus, UniProt B9J3S4); type: biochemical; details: 12.5–1.5 μM tested, SDS-PAGE
ColQ1-FL, sequence (B9J3S4 94-965 limits assumed): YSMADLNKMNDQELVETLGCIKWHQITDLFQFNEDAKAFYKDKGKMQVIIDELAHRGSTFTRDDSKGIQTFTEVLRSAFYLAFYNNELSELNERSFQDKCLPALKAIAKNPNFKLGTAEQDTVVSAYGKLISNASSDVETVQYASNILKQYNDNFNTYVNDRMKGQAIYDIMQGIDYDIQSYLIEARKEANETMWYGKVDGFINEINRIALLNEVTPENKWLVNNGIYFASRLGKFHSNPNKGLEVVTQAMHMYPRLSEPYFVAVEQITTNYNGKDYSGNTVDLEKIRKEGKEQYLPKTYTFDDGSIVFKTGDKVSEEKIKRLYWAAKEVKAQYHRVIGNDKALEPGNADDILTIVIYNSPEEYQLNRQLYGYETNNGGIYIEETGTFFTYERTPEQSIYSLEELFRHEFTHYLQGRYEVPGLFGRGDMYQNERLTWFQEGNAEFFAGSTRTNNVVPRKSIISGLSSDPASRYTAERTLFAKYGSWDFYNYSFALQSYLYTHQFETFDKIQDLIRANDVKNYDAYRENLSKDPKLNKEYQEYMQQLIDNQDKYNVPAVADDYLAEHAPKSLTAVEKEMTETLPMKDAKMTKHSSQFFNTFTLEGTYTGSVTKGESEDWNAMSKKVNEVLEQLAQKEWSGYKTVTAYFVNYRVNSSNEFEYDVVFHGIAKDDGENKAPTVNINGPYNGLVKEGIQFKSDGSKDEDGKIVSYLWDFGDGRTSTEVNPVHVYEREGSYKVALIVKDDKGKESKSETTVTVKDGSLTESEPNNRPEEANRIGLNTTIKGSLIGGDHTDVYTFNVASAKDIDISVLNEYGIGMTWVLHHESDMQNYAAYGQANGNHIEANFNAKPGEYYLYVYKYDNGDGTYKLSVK

[5] = test system: NHDF cells infected with B. cereus; experiment: NHDF infection model, cell morphology/attachment and fibrillar collagen (picrosirius red); type: cell-based, human; details: B. cereus infection, 5 h

ColQ1-CU, sequence (B9J3S4 94-765 limits assumed): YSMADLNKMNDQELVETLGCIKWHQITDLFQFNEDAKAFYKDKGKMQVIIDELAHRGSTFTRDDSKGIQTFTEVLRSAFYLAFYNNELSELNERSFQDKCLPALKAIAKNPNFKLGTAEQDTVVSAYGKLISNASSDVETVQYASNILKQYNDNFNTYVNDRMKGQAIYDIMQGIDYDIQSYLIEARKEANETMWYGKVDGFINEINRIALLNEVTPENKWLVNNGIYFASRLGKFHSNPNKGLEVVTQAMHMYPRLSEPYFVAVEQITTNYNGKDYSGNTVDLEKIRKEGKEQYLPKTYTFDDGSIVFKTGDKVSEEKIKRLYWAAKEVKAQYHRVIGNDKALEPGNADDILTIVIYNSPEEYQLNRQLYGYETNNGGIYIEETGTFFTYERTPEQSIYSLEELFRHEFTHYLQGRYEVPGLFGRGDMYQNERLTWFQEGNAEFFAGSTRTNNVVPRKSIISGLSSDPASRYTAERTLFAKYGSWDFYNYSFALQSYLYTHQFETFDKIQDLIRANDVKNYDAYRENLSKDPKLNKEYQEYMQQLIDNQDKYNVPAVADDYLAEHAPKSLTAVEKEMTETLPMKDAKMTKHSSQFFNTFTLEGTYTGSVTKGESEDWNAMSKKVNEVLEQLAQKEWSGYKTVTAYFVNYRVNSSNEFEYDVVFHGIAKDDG

Row | Compound | inhibition at 100 µM [1] | IC50 [1] | Inhibitory effect on gelatinolytic activity of secreted collagenases [3] | Protection of Col I chains from cleavage by ColQ1-FL [4] | further results
1 | O=P(O)(O)C(Cl)(Cl)P(=O)(O)O [Clodronate disodium, reference compound] | < 5% |  |  |  | 
2 | O=P(O)(O)c1nc2ccccc2nc1P(=O)(O)O [Compound 7, Quinoxaline-2,3-diylbis(phosphonic acid)] | 40 ± 7% |  |  |  | 
3 | CCOP(=O)(OCC)c1nc2ccccc2nc1P(=O)(OCC)OCC [Compound 7c, Tetraethyl Quinoxaline-2,3-diylbis(phosphonate)] | < 5% |  |  |  | Inhibition (%) ([1]; 100 μM): 7c; O=P(OCC)(OCC)C2=NC1=CC=CC=C1N=C2P(OCC)(OCC)=O; 3 ± 2%
4 | O=P(O)(O)c1nc2ccc(F)cc2nc1P(=O)(O)O [Compound 8, (6-Fluoroquinoxaline-2,3-diyl)bis(phosphonic acid)] |  |  |  |  | Inhibition (%) ([1]; 100 μM): 8; O=P(O)(O)C2=NC1=CC(F)=CC=C1N=C2P(O)(O)=O; 38 ± 3%
5 | O=P(O)(O)c1nc2ccc(Cl)cc2nc1P(=O)(O)O [Compound 9, (6-Chloroquinoxaline-2,3-diyl)bis(phosphonic acid)] |  | 4 ± 0.6 µM |  |  | 
6 | Cc1ccc2nc(P(=O)(O)O)c(P(=O)(O)O)nc2c1 [Compound 11, (6-Methylquinoxaline-2,3-diyl)bis(phosphonic acid)] | 58% | 3.4 ± 0.1 µM | inhibited the collagenase activity toward gelatin only marginally at 100 μM | inhibited the collagenase activity at all concentrations tested | MIC50 [2]: 200 µM (≈ 60.8 µg/mL); Effect on cell morphology and ECM collagen content of infected NHDF cells [5]: smaller effect at all concentrations tested
7 | CCOP(=O)(OCC)c1nc2ccc(C)cc2nc1P(=O)(OCC)OCC [Compound 11c, tetraethyl (6-methylquinoxaline-2,3-diyl)bis(phosphonate)] | < 5% |  |  |  | Inhibition (%) ([1]; 100 μM): 11c; O=P(OCC)(OCC)C2=NC1=CC(C)=CC=C1N=C2P(OCC)(OCC)=O; 8 ± 4%
8 | COc1ccc2nc(P(=O)(O)O)c(P(=O)(O)O)nc2c1 [Compound 12, (6-Methoxyquinoxaline-2,3-diyl)bis(phosphonic acid)] | 23 ± 6% |  |  |  | 
9 | CCOP(=O)(OCC)c1nc2ccc(OC)cc2nc1P(=O)(OCC)OCC [Compound 12c, tetraethyl (6-methoxyquinoxaline-2,3-diyl)bis(phosphonate)] |  |  |  |  | % Inhibition ([1]; 100 μM): n.i. (key: n.i.: no inhibition (percent inhibition < 5%)); Inhibition (%) ([1]; 100 μM): 12c; O=P(OCC)(OCC)C2=NC1=CC(OC)=CC=C1N=C2P(OCC)(OCC)=O; 0 ± 2%
10 | O=c1[nH]c2cc(Cl)c(Cl)cc2nc1P(=O)(O)O [Compound 16, (6,7-Dichloro-3-oxo-3,4-dihydroquinoxalin-2-yl)phosphonic Acid] | < 5% |  |  | severe degradation was visible at all tested concentrations | Inhibition (%) ([1]; 100 μM): 16; O=P(O)(O)C2=NC1=CC(Cl)=C(Cl)C=C1NC2=O; 5 ± 2%
11 | CC(=O)Nc1cccc(OCc2cn(CCNC(=O)C(CC(C)C)C(=O)NO)nn2)c1 (stereo not drawn) [Compound 28, N-[2-[4-[(3-Acetamidophenoxy)methyl]triazol-1-yl]ethyl]-2-(hydroxycarbamoyl)-4-methyl-pentanamide] |  | 35 ± 1 µM | no inhibitory effect on the collagenase in the zymography at all tested concentrations; also recorded: no inhibition of the collagenase in the gelatin zymography was detected | severe degradation was visible at all tested concentrations | Effect on cell morphology and ECM collagen content of infected NHDF cells [5]: neither able to rescue cell morphology nor able to maintain the collagen content of the ECM
12 | CC(=O)Nc1ccc(OCc2cn(CCNC(=O)C(CC(C)C)C(=O)NO)nn2)cc1 (stereo not drawn) [Compound 29, N-[2-[4-[(4-Acetamidophenoxy)methyl]triazol-1-yl]ethyl]-2-(hydroxycarbamoyl)-4-methyl-pentanamide] |  | 35 ± 3 µM | no inhibitory effect on the collagenase in the zymography at all tested concentrations; also recorded: no inhibition of the collagenase in the gelatin zymography was detected | severe degradation was visible at all tested concentrations | Effect on cell morphology and ECM collagen content of infected NHDF cells [5]: neither able to rescue cell morphology nor able to maintain the collagen content of the ECM
13 | CC(C)CC(C(=O)NO)C(=O)NCCn1cc(COc2ccccc2F)nn1 (stereo not drawn) [Compound 30, N-[2-[4-[(2-Fluorophenoxy)methyl]triazol-1-yl]ethyl]-2-(hydroxycarbamoyl)-4-methyl-pentanamide] | 92% | 16.2 ± 0.8 µM | no inhibitory effect on the collagenase in the zymography at all tested concentrations |  | 
14 | CC(C)CC(C(=O)NO)C(=O)NCCn1cc(COc2ccccc2)nn1 (stereo not drawn) [Compound 31, 2-(Hydroxycarbamoyl)-4-methyl-N-[2-[4-(phenoxymethyl)triazol-1-yl]ethyl]pentanamide] |  | 12 ± 1 µM | no inhibitory effect on the collagenase in the zymography at all tested concentrations; also recorded: no inhibition of the collagenase in the gelatin zymography was detected | severe degradation was visible at all tested concentrations | Effect on cell morphology and ECM collagen content of infected NHDF cells [5]: neither able to rescue cell morphology nor able to maintain the collagen content of the ECM
15 | CC(C)CC(C(=O)NO)C(=O)NCCn1cc(CSc2ccccc2)nn1 (stereo not drawn) [Compound 32, 2-(Hydroxycarbamoyl)-4-methyl-N-[2-[4-(phenylsulfanylmethyl)triazol-1 yl]ethyl]pentanamide] |  | 10.1 ± 0.9 µM | no inhibitory effect on the collagenase in the zymography at all tested concentrations; also recorded: no inhibition of the collagenase in the gelatin zymography was detected | severe degradation was visible at all tested concentrations | Effect on cell morphology and ECM collagen content of infected NHDF cells [5]: neither able to rescue cell morphology nor able to maintain the collagen content of the ECM
16 | CCCCCN(C)CCC(O)(P(=O)(O)O)P(=O)(O)O [Ibandronate sodium, reference compound] | < 5% |  |  |  | 
17 | NCCCCCC(O)(P(=O)(O)O)P(=O)(O)O [Neridronate, reference compound] | < 5% |  |  |  | 
18 | O=P(O)(O)C(O)(Cc1cccnc1)P(=O)(O)O [Risedronate sodium, reference compound] | < 5% |  |  |  | 
